Assay results published in patent US20070004763A1, “AMINOQUINOLINE AND AMINOQUINAZOLINE KINASE MODULATORS” (priority 2005, published 2007).

Biological target: T1, TrkB (Homo sapiens, UniProt Q16620)
T1 construct: purchased Upstate 14-507M
Assay: Trk B Fluorescence Polarization Kinase Assay
Type: biochemical
Conditions: 150 uM ATP, 50 nM TrkB; uncertainty ±10%
Description: The compounds of the present invention are also specific inhibitors of TrkB. Selection of preferred compounds of Formula I for use as TrkB inhibitors was performed in the following manner. The TrkB assay utilized the fluorescein-labeled phosphopeptide and the anti-phosphotyrosine antibody included in the Panvera Phospho-Tyrosine Kinase Kit (Green) supplied by Invitrogen. When TrkB phosphorylated poly Glu4Tyr, the fluorescein-labeled phosphopeptide was displaced from the anti-phosphotyrosine antibody by the phosphorylated poly Glu4Tyr, thus decreasing the FP value. The TrkB kinase reaction was incubated at room temperature for 30 minutes under the following conditions: 50 nM TrkB (Upstate, catalog #14-507M), 20 ug/mL poly Glu4Tyr, 150 uM ATP, 5 mM MgCl2, 1% compound in DMSO. The kinase reaction was stopped with the addition of EDTA. The fluorescein-labeled phosphopeptide and the anti-phosphotyrosine antibody were added and incubated for 30 minutes at room temperature. Data points were an average of triplicate samples. Inhibition and IC50 data analysis were done with GraphPad Prism using a non-linear regression fit with a multiparamater, sigmoidal dose-response (variable slope) equation.

T1 sequence (Q16620 526-822 limits assumed): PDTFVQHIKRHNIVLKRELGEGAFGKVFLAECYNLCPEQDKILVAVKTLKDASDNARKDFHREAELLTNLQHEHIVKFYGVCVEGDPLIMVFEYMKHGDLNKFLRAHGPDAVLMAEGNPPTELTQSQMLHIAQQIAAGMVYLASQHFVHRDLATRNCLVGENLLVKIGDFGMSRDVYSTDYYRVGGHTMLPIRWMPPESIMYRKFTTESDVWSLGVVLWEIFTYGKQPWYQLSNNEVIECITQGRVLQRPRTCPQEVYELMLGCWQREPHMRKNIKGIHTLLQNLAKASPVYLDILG

Compound | IC50 [µM]
COc1cc2ncnc(N3CCC(OC(=O)Nc4ccc(C(C)C)cc4)CC3)c2cc1OC [Compound 1, (4-Isopropyl-phenyl)-carbamic acid 1-(6,7-dimethoxy-quinazolin-4-yl)-piperidin-4-yl ester] | 5.72
COc1cc2ncnc(N3CCC(OC(=O)Nc4ccc(C(C)C)cc4)C3)c2cc1OC (centres unmarked) [Compound 2, (4-Isopropyl-phenyl)-carbamic acid 1-(6,7-dimethoxy-quinazolin-4-yl)-pyrrolidin-3-yl ester] | 3.7
COc1cc2ncnc(N3CCC(OC(=O)Nc4ccc(OC(C)C)cc4)CC3)c2cc1OC [Compound 3, (4-Isopropoxy-phenyl)-carbamic acid 1-(6,7-dimethoxy-quinazolin-4-yl)-piperidin-4-yl ester] | 5.8
COc1cc2ncnc(N3CCCC(COC(=O)Nc4ccc(C(C)C)cc4)C3)c2cc1OC (centres unmarked) [Compound 4] | 8.4
COc1cc2ncnc(N3CCC(NC(=O)Nc4ccc(OC(C)C)cc4)C3)c2cc1OC (centres unmarked) [Compound 8, 1-[1-(6,7-Dimethoxy-quinazolin-4-yl)-pyrrolidin-3-yl]-3-(4-isopropoxy-phenyl)-urea] | 3.65
CC(C)c1ccc(NC(=O)OC2CCN(c3ccnc4ccccc34)CC2)cc1 [Compound 10] | 6.5
COc1cc2ncnc(N3CCC(OC(=O)Nc4ccc(OC5CCC5)nc4)CC3)c2cc1OC [Compound 11, (6-Cyclobutoxy-pyridin-3-yl)-carbamic acid 1-(6,7-dimethoxy-quinazolin-4-yl)-piperidin-4-yl ester] | 8.6
COc1cc2ncnc(N3CCC(OC(=O)Nc4ccc(OC5CCC5)nc4)C3)c2cc1OC (centres unmarked) [Compound 12, (6-Cyclobutoxy-pyridin-3-yl)-carbamic acid 1-(6,7-dimethoxy-quinazolin-4-yl)-pyrrolidin-3-yl ester] | 21.7
COc1cc2ncnc(N3CCC(OC(=O)Nc4ccc(OC(C)C)cc4)C3)c2cc1OC (centres unmarked) [Compound 15, (4-Isopropoxy-phenyl)-carbamic acid 1-(6,7-dimethoxy-quinazolin-4-yl)-pyrrolidin-3-yl ester] | 12.5
CC(C)c1ccc(NC(=O)NC2CCN(c3ncnc4ccccc34)C2)cc1 (centres unmarked) [Compound 16, 1-(4-Isopropyl-phenyl)-3-(1-quinazolin-4-yl-pyrrolidin-3-yl) urea] | 2.4
CCN(CC)CC#Cc1ccc2ncnc(N3CCC(OC(=O)Nc4ccc(C(C)C)cc4)C3)c2c1 (centres unmarked) [Compound 17, (4-Isopropyl-phenyl)-3-carbamic acid 1-[6-(3-diethylamino-prop-1-ynyl)-quinazolin-4-yl]-pyrrolidin-3-yl ester] | 3.6

Second part, the compound after the results:

IC50 [µM] | Compound
2.4 | COc1cc2ncnc(N3CCC(CC(=O)Nc4ccc(C(C)C)cc4)CC3)c2cc1OC [Compound 5, 2-[1-(6,7-Dimethoxy-quinazolin-4-yl)-piperidin-4-yl]-N-(4-isopropyl-phenyl)-acetamide]
0.1 | COc1cc2ncnc(N3CCC(CC(=O)Nc4ccc(C(C)C)cc4)C3)c2cc1OC (centres unmarked) [Compound 6, 2-[11-(6,7-Dimethoxy-quinazolin-4-yl)-pyrrolidin-3-yl]-N-(4-isopropyl-phenyl)-acetamide]
0.2 | COc1cc2ncnc(N3CCCC3COC(=O)Nc3ccc(C(C)C)cc3)c2cc1OC (centres unmarked) [Compound 9]
0.16 | COc1cc2ncnc(N3CCC(C(=O)Nc4ccc(C(C)C)cc4)CC3)c2cc1OC [Compound 13, 1-(6,7-Dimethoxy-quinazolin-4-yl)-piperidine-4-carboxylic acid (4-isopropyl-phenyl)-amide]
0.4 | CC(C)c1ccc(NC(=O)OC2CCN(c3ncnc4ccc(C#CCO)cc34)C2)cc1 (centres unmarked) [Compound 14, (4-Isopropyl-phenyl)-carbamic acid 1-[6-(3-hydroxy-prop-1-ynyl)-quinazolin-4-yl]-pyrrolidin-3-yl ester]
0.5 | COc1cc2ncnc(N3CCC(CNC(=O)Nc4ccc(C(C)C)cc4)CC3)c2cc1OC [Compound 18, 1-[1-(6,7-Dimethoxy-quinazolin-4-yl)-piperidin-4-ylmethyl]-3-(4-isopropyl-phenyl)-urea]
